ChEMBL document CHEMBL2331527, “New imidazo[1,2-a]pyridines carrying active pharmacophores: synthesis and anticonvulsant studies” (Bioorg Med Chem Lett, 2013)

Assays:
Mus musculus [1] = test: Neurotoxicity in ip dosed mouse assessed as minimum effective dose required to induce motor impairment measured after 4 hrs by Rotarod test; type: toxicity, organism-based; settings: in vivo
Mus musculus [2] = test: Neurotoxicity in ip dosed mouse assessed as minimum effective dose required to induce motor impairment measured after 0.5 hrs by Rotarod test; type: toxicity, organism-based; settings: in vivo
Mus musculus [3] = test: Anticonvulsant activity against subcutaneous pentylenetetrazole-induced seizures in mouse assessed as onset time for tonic seizures at 10 mg/kg, ip measured after 0.5 hrs by pentylene tetrazole test (reference value: 385.5 +/-10.90 secs); type: functional; settings: route intraperitoneal
Mus musculus [4] = test: Anticonvulsant activity against subcutaneous pentylenetetrazole-induced seizures in mouse assessed as onset time for clonic seizures at 10 mg/kg, ip measured after 0.5 hrs by pentylene tetrazole test (reference value: 59.2 +/-1.11 secs); type: functional
Mus musculus [5] = test: Anticonvulsant activity against maximal electroshock-induced seizures in NMRI mouse assessed as latency period for the onset of clonus at 10 mg/kg, ip measured after 0.5 hrs by maximal electroshock test (reference value: 2.18 +/-0.47 secs); type: functional; settings: route intraperitoneal
Mus musculus [6] = test: Anticonvulsant activity against maximal electroshock-induced seizures in NMRI mouse assessed as duration of tonic hindlimb extension at 10 mg/kg, ip measured after 0.5 hrs by maximal electroshock test (reference value: 15.35 +/-0.60%); type: functional; settings: route intraperitoneal

Compound | MED (Mus musculus [1]) | MED (Mus musculus [2]) | Time (Mus musculus [3]) | Time (Mus musculus [4]) | Time (Mus musculus [5]) | Time (Mus musculus [6])
Cc1cccn2c(C3CC(c4ccc(Cl)cc4)=NN3)c(-c3ccc(F)cc3)nc12 (centres undefined) | Non-toxic | Non-toxic | 542.2 s | 158.7 s | 9.45 s | 7.21 s
Cc1cccn2c(C3CC(c4ccccc4)=NN3)c(-c3ccc(F)cc3)nc12 (centres undefined) | Non-toxic | Non-toxic | 528.2 s | 149.3 s | 10.97 s | 6.54 s
Cc1ccc(C2=NNC(c3c(-c4ccccc4)nc4c(C)cccn34)C2)cc1 (centres undefined) |  |  | 532.5 s | 126.7 s | 9.28 s | 7.22 s
Cc1cccn2c(C3CC(c4ccc(F)cc4)=NN3)c(-c3ccccc3)nc12 (centres undefined) |  |  | 426.8 s | 79.32 s | 9.25 s | 7.15 s
Cc1ccc(-c2nc3c(C)cccn3c2C2CC(c3cccs3)=NN2)cc1 (centres undefined) | Non-toxic | Non-toxic | 530.8 s | 117.7 s | 9.33 s | 7.27 s
Cc1cccn2c(-c3cc(-c4ccc([N+](=O)[O-])cc4)[nH]c(=O)c3C#N)c(-c3ccc(F)cc3)nc12 | 100 mg/kg | Non-toxic | 641.5 s | 171.8 s | 10.88 s | 6.61 s
Cc1cccn2c(-c3cc(-c4ccc(Cl)cc4)[nH]c(=O)c3C#N)c(-c3ccc(F)cc3)nc12 | Non-toxic | Non-toxic | 544.7 s | 129.2 s | 10.97 s | 6.54 s
COc1nc(-c2ccc(C)cc2)cc(-c2c(-c3ccc(F)cc3)nc3c(C)cccn23)c1C#N | Non-toxic | Non-toxic | 611.5 s | 335.3 s | 7.94 s | 9.84 s
COc1nc(-c2ccccc2)cc(-c2c(-c3ccc(F)cc3)nc3c(C)cccn23)c1C#N | Non-toxic | Non-toxic | 596 s | 171.5 s | 9.9 s | 7.77 s
COc1nc(-c2ccc([N+](=O)[O-])cc2)cc(-c2c(-c3ccc(F)cc3)nc3c(C)cccn23)c1C#N |  |  | 469.2 s | 115.7 s | 9.13 s | 7.01 s
COc1nc(-c2ccc(F)cc2)cc(-c2c(-c3ccccc3)nc3c(C)cccn23)c1C#N | Non-toxic | Non-toxic | 456.7 s | 90.87 s | 10.77 s | 6.96 s
COc1nc(-c2ccc([N+](=O)[O-])cc2)cc(-c2c(-c3ccccc3)nc3c(C)cccn23)c1C#N | Non-toxic | Non-toxic | 426.8 s | 79.32 s | 8.72 s | 8.52 s
COc1nc(-c2ccc(C)cc2)cc(-c2c(-c3ccccc3)nc3c(C)cccn23)c1C#N | Non-toxic | Non-toxic | 595.7 s | 170.7 s | 10.9 s | 6.85 s
Cc1cccn2c(-c3cc(-c4ccc(Cl)cc4)nc(N)n3)c(-c3ccc(F)cc3)nc12 |  |  | 480.2 s | 109.7 s | 7.95 s | 9.88 s
Cc1cccn2c(-c3cc(-c4ccc([N+](=O)[O-])cc4)nc(N)n3)c(-c3ccc(F)cc3)nc12 |  |  | 435.8 s | 85.33 s | 8.8 s | 8.67 s
Cc1ccc(-c2cc(-c3c(-c4ccc(F)cc4)nc4c(C)cccn34)nc(N)n2)cc1 | Non-toxic | Non-toxic | 593.2 s | 171.4 s | 8.16 s | 8.15 s
Cc1cccn2c(-c3cc(-c4ccccc4)nc(N)n3)c(-c3ccc(F)cc3)nc12 | Non-toxic | Non-toxic | 469.2 s | 115.7 s | 8.11 s | 8.27 s
Cc1cccn2c(-c3cc(-c4cccs4)nc(N)n3)c(-c3ccccc3)nc12 | Non-toxic | Non-toxic | 426.8 s | 79.5 s | 8.86 s | 8.71 s
Cc1ccc(-c2cc(-c3c(-c4ccccc4)nc4c(C)cccn34)nc(N)n2)cc1 | Non-toxic | Non-toxic | 454.7 s | 90.83 s | 8.72 s | 8.52 s
Cc1cccn2c(C3C=C(c4ccc(Cl)cc4)NC(=S)N3)c(-c3ccc(F)cc3)nc12 (centres undefined) |  |  | 435 s | 82.5 s | 9.9 s | 7.77 s
Cc1cccn2c(C3C=C(c4ccccc4)NC(=S)N3)c(-c3ccc(F)cc3)nc12 (centres undefined) | Non-toxic | Non-toxic | 479.7 s | 107 s | 8.04 s | 8.13 s
Cc1ccc(C2=CC(c3c(-c4ccccc4)nc4c(C)cccn34)NC(=S)N2)cc1 (centres undefined) | Non-toxic | Non-toxic | 426.5 s | 79.34 s | 9.75 s | 7.45 s
Cc1cccn2c(C3C=C(c4ccc(F)cc4)NC(=S)N3)c(-c3ccccc3)nc12 (centres undefined) | Non-toxic | Non-toxic | 454.7 s | 90.83 s | 10.91 s | 6.87 s
CN1C(=O)CN=C(c2ccccc2)c2cc(Cl)ccc21 [DIAZEPAM] | Non-toxic | Non-toxic |  |  | 13.17 s | 
